The structures appear in SMILES notation.

The data set is described as follows: gradient 5% acetonitrile 3 min, to 50% in 2 min, to 85% in 15 min, held 3 min, 100 µL/min. The conditions noted are these: column: Zorbax Extend-C18 2.1 x 50 mm; eluents: water / acetonitrile, 0.1% formic acid. An outline of the steps:
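Retention times come from adduct peaks that were picked computationally and then checked by hand. The standards, pure and pooled in mixtures of ~100 molecules, were run on a Zorbax Extend-C18 column (2.1 × 50 mm, 1.8 μm) at 100 μL/min with water and acetonitrile, each with 0.1% formic acid. Detection was by quadrupole time-of-flight mass spectrometry in positive and negative ionization mode, with a dead volume of 40 μL and a dwell volume of 900 μL.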
`COc1ccc(C)cc1NC(=O)CN1C(=O)C(C)(C)c2cc(C)ccc21` displayed an RP-LC retention time of 588 s.

Take `Cc1ccc(CN2CC(COc3cccnc3)C3(CCOCC3)C2)c(C)c1` (configuration not stated): the RP-LC retention time was determined as 591 s.

For the molecule `CCNS(=O)(=O)c1cccnc1Nc1cccc(C)c1`, the RP-LC retention time worked out at 998 s.

In turn, `c1ccc(-c2cn3ccccc3n2)cc1` displayed an RP-LC retention time of 644 s.

`CCC(=O)NCc1nc2c(n1CC)CN(C(=O)c1ccc(Cl)cc1)CC2`: the RP-LC retention time is 529 s.

Regarding `CC(C)Cn1cc(CCNS(=O)(=O)Cc2ccc(Cl)cc2)c2cccnc21`, the RP-LC retention time was 986 s.

The molecule `CSc1cccc(NC(=O)CN2C(=O)CCn3nc(-c4cn(C)c5ccccc45)cc32)c1` displayed an RP-LC retention time of 902 s.

In turn, `O=C(Cn1nc(N2CCSCC2)c2ccccc2c1=O)Nc1cccc(C(F)(F)F)c1` displayed an RP-LC retention time of 1030 s.

With `CCOc1ccccc1-c1nc(-c2cn(Cc3cccc(F)c3)nn2)no1`, the RP-LC retention time amounted to 1010 s.

The molecule `CCOc1ccc(N2CC(c3nc(-c4ccc(Cl)cc4)no3)CC2=O)cc1` (configuration not stated) displayed an RP-LC retention time of 1080 s.

For the molecule `O=C(O)c1ccc(Nc2nc(-c3ccc(Cl)cc3Cl)nc3ccccc23)cc1`, the RP-LC retention time is 828 s.

`COc1cc(OC)cc(-c2nc(-c3nnn(-c4ccccc4)c3C)no2)c1` yielded an RP-LC retention time of 1070 s.

The molecule `CCc1nc2c(=O)n(CC(=O)N(CC)Cc3ccccc3)nc(C)c2s1` had an RP-LC retention time of 740 s.

For the molecule `CC(=O)N1CCC2(CC1)OC(=O)C(C)=C2C(=O)NCc1ccccc1Br`, the RP-LC retention time stood at 721 s.

Molecule `O=C(NCC1CCCCC1)c1ccc2c(c1)nc1n2CCN(C2CCCCC2)C1=O` showed an RP-LC retention time of 872 s.

The molecule `N#CCCN1CCN(C2=NC(=O)/C(=C\c3cccs3)S2)CC1` came in with an RP-LC retention time of 611 s.

As to `Cc1ccc2c(c1)N(C(=O)N1CCC(C(=O)NCc3ccccc3)CC1)CCO2`, the RP-LC retention time was found to be 820 s.

For the molecule `Cc1ccc(-c2nc(-c3ccc4c(c3)ncn4CCN3CCOCC3)no2)cc1F`, the RP-LC retention time is 689 s.

In turn, `CCC1Oc2ccc(S(=O)(=O)N3CCC(C(=O)Nc4ccc(C)cc4C)CC3)cc2NC1=O` (configuration not stated) gave an RP-LC retention time of 868 s.

Turning to `CN(C)C/C=C/C(=O)Nc1ccc(C(=O)Nc2cccc(Nc3ncc(Cl)c(-c4c[nH]c5ccccc45)n3)c2)cc1`, the RP-LC retention time was 800 s.

`Cc1noc(-c2cc(=O)n(CC(=O)Nc3ccc4c(c3)OCO4)c3ccccc23)n1` displayed an RP-LC retention time of 831 s.

`Cn1ncc2c(N3CCCC3)nc(C(=O)NCc3ccc(F)cc3)nc21` yielded an RP-LC retention time of 790 s.

In turn, `O=C(NCc1csc(-c2ccccc2)n1)C1CCN(S(=O)(=O)c2cccc(Cl)c2)CC1` gave an RP-LC retention time of 962 s.

`CC1(C(=O)NCc2cccc(Br)c2)Oc2cccnc2NC1=O` (configuration not stated): the RP-LC retention time was determined as 730 s.

Turning to `CCCS(=O)(=O)c1nc2ccc(NS(=O)(=O)c3ccc4c(c3)OCCO4)cc2s1`, the RP-LC retention time came to 888 s.

On to `CN1c2cc(C(=O)NC3CCCC3)ccc2C(=O)N2CCCCC21` (configuration not stated), for which the RP-LC retention time was 767 s.

The molecule `O=C(Cn1cccc1-c1nc(-c2ccc3c(c2)OCO3)no1)N1CCc2ccccc21` showed an RP-LC retention time of 1090 s.

Turning to `O=C(NCc1ccc(F)cc1)c1ccc(-n2nc(N3CCCC3)ccc2=O)cc1`, the RP-LC retention time worked out at 810 s.

`O=S(=O)(Nc1cnn(-c2ncc(N3CCCC3)cn2)c1)c1ccc2c(c1)CCCC2`: the RP-LC retention time amounted to 983 s.

As for `CN1CCN(CC2(O)CCC3(CCN(C(=O)c4ccoc4)CC3)CC2)CC1`, the RP-LC retention time is 551 s.

For `Cc1ccc(-c2ccc(=O)n(CCc3nc(-c4ccc5c(c4)OCO5)no3)n2)cc1C`, the RP-LC retention time was found to be 1020 s.

Regarding `O=C(NCCCN1CCCC1=O)c1ccc2nc(Cc3ccccc3)oc2c1`, the RP-LC retention time was found to be 731 s.
